The species entered for one data set is Homo sapiens. Description: Antithrombotic activity by measuring the activated partial thromboplastin time(aPPT) in human plasma. It counts as functional.
Another data set has as its target Coagulation factor X (Homo sapiens, UniProt P00742). Description: Inhibition of coagulation factor X.
Another data set deals with Prothrombin (Homo sapiens, UniProt P00734). Put plainly: Inhibition of human thrombin.
The next data set concerns the target Plasminogen (Homo sapiens, UniProt P00747). Put plainly: Inhibition of plasmin.
A short description of data set [1]: Inhibition of bovine trypsin. Details: species or system Bos taurus.
Data set [2] is described as follows: Partition coefficient (logP). The note with it: octanol/water. It counts as physicochemical.

Sequence of Coagulation factor X (P00742 41-179 limits assumed): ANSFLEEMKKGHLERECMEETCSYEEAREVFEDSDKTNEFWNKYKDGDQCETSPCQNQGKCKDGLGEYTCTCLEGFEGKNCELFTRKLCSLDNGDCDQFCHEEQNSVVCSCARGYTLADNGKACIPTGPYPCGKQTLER
Sequence of Coagulation factor X (P00742 235-488 limits assumed): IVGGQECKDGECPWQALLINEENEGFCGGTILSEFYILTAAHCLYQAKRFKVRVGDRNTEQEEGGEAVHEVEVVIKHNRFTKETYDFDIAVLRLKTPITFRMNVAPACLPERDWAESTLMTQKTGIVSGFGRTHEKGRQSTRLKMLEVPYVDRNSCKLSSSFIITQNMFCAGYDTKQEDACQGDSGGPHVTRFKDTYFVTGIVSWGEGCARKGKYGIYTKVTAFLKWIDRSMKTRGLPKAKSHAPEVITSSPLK
Sequence of Plasminogen (P00747 97-580 limits assumed): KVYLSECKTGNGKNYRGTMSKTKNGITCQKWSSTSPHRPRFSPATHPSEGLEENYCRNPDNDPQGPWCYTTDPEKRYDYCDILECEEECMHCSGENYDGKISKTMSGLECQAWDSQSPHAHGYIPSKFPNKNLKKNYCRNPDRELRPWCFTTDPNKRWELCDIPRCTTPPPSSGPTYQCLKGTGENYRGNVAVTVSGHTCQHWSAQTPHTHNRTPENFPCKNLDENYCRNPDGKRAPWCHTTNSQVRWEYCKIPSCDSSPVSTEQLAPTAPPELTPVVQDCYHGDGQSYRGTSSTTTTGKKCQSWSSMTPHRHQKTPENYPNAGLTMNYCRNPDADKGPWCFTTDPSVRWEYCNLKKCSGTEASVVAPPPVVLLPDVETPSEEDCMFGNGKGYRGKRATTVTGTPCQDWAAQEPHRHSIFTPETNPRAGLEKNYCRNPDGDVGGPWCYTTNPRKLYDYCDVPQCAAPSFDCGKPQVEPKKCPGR
Sequence of Plasminogen (P00747 581-810 limits assumed): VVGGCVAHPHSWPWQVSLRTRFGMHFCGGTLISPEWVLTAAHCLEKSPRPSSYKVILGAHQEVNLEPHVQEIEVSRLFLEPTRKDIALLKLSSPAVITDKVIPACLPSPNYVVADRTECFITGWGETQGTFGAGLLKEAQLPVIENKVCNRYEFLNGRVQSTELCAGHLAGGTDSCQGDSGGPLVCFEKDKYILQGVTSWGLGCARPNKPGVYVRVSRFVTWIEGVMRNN

In the data set filed under Homo sapiens, `Cn1c(=O)c(Cc2ccc(C(=N)N)cc2)nc2cc(C3(C(=O)O)CC3)ccc21` registered an ED200 of more than 10 µM. At Coagulation factor X, the IC50 (usually the concentration that gives 50% inhibition) is more than 100000 nM.

Molecule `CCOC(=O)C1(c2ccc3c(c2)nc(Cc2ccc(C(=N)N)cc2)c(=O)n3C)CC1` returned an ED200 in the data set filed under Homo sapiens of 0.67 µM. Moreover, the IC50 against Prothrombin came out at 27 nM; on Coagulation factor X, 46000 nM; against Plasminogen, 69000 nM; in data set [1], 580 nM.

Turning to `Cn1c(=O)c(Cc2ccc(C(=N)N)cc2)nc2cc(C3(C(=O)N4CCCC4)CC3)ccc21`, in the data set filed under Homo sapiens, the ED200 came out at 0.095 µM. Moreover, the logP (commonly the decadic logarithm of the partition coefficient of the neutral form, usually between octanol and water) in data set [2] is 1.5. The same molecule displayed an IC50 against Plasminogen of 66000 nM.

As for `Cn1c(=O)c(Cc2ccc(C(=N)N)cc2)nc2cc(C(C)(C)C(=O)N3CCCCC3)ccc21`, the ED200 in the data set listed under Homo sapiens stood at 0.25 µM. Further, the IC50 was 8 nM against Prothrombin, 400 nM against Coagulation factor X, 60000 nM against Plasminogen and 2200 nM in data set [1].

`CCOC(=O)C(C)(C)c1ccc2c(c1)nc(Cc1ccc(C(=N)N)cc1)c(=O)n2C` returned an ED200 in the data set listed under Homo sapiens of 0.43 µM. Further, the IC50 on Prothrombin turned out to be 10 nM; against Coagulation factor X, 10600 nM; at Plasminogen, 75000 nM; in data set [1], 410 nM. For the same molecule, the logP in data set [2] is 0.5.

`Cn1c(=O)c(Cc2ccc(C(=N)N)cc2)nc2cc(C(C)(C)C(=O)N3CCCC3)ccc21`: in the data set listed under Homo sapiens, the ED200 was 0.16 µM. Besides, the IC50 on Prothrombin was found to be 5 nM; on Coagulation factor X, 500 nM; at Plasminogen, 53000 nM; in data set [1] it was 320 nM. Further, the logP in data set [2] was determined as 1.

For the molecule `CCOC(=O)C(C)(C)c1ccc2c(C)cc(Oc3ccc(C(=N)N)cc3)nc2c1`, the ED200 in the data set listed under Homo sapiens worked out at 0.94 µM. For the same molecule, the values for the IC50 (against Coagulation factor X; in data set [1]) were 12100 nM and 2400 nM, respectively. Moreover, the logP in data set [2] is 1.7.

`Cn1c(=O)c(Cc2ccc(C(=N)N)cc2)nc2cc(C3(C(=O)N4CCCC4CO)CC3)ccc21` (centres undefined) showed an ED200 in the data set filed under Homo sapiens of 0.21 µM. Besides, the half-maximal inhibitory concentration (IC50) against Prothrombin stood at 13 nM; against Coagulation factor X, 1400 nM; against Plasminogen, 72000 nM; in data set [1] it was 850 nM.

Molecule `CN(C)C(=O)C(C)(C)c1ccc2c(c1)nc(Cc1ccc(C(=N)N)cc1)c(=O)n2C` returned an ED200 in the data set filed under Homo sapiens of 0.41 µM. In addition, the IC50 is 16 nM against Prothrombin, 9200 nM at Coagulation factor X, more than 100000 nM against Plasminogen and 9500 nM in data set [1].

Turning to `Cn1c(=O)c(Cc2ccc(C(=N)N)cc2)nc2cc(C3(C(=O)N4CCCC4C(=O)NCC(=O)O)CC3)ccc21` (centres undefined), in the data set filed under Homo sapiens, the ED200 was 0.91 µM. Besides, the IC50 against Prothrombin is 190 nM; against Coagulation factor X it was more than 100000 nM; at Plasminogen, 68000 nM; in data set [1], 2400 nM.

In the case of `CCOC(=O)C1(c2ccc3c(C)cc(Oc4ccc(C(=N)N)cc4)nc3c2)CCCC1`, the IC50 on Prothrombin came to 30 nM; in data set [1], 560 nM.

In turn, `Cn1c(=O)c(Cc2ccc(C(=N)N)cc2)nc2cc(C(C)(C)C(=O)N3CCNCC3)ccc21` displayed an ED200 in the data set listed under Homo sapiens of 0.71 µM. Moreover, the IC50 was determined as 68 nM on Prothrombin and 31000 nM at Coagulation factor X.

As for `Cn1c(=O)c(Cc2ccc(C(=N)N)cc2)nc2cc(C3(N(C(=O)CC(=O)O)C4CCCC4)CC3)ccc21`, in the data set filed under Homo sapiens, the ED200 stood at 0.45 µM. Moreover, the IC50 against Prothrombin was found to be 15 nM; against Coagulation factor X it was 3000 nM; against Plasminogen, 36000 nM; in data set [1], 550 nM.

For the molecule `CC1CCCN(C(=O)C(C)(C)c2ccc3c(c2)nc(Cc2ccc(C(=N)N)cc2)c(=O)n3C)C1` (centres undefined), the ED200 in the data set listed under Homo sapiens came out at 0.12 µM. In addition, the IC50 against Prothrombin was 12 nM; on Coagulation factor X, 590 nM.

The values are drawn from ChEMBL document CHEMBL1146615, “Heterocyclic thrombin inhibitors. Part 2: quinoxalinone derivatives as novel, potent antithrombotic agents” (Bioorg Med Chem Lett, 2003).
